PubChem BioAssay (NCI)
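Growth conditions: 96-well plates. Treatment: test compound, 48 hours, 5 concentrations. Analysis: linear interpolation between bracketing concentrations; unreached endpoints set to highest concentration. GI50 marks 50% less growth. The concentration for full growth arrest is given as TGI.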

How the values were obtained:
Assay in all cases: inhibition of tumour cell growth, NCI panel, 48 h
786-0 renal = test system: 786-0 renal
A498 renal = test system: A498 renal
A549 NSCLC = test system: A549 NSCLC
ACHN renal = test system: ACHN renal
BT-549 breast = test system: BT-549 breast
CAKI-1 renal = test system: CAKI-1 renal
CCRF-CEM leukemia = test system: CCRF-CEM leukemia
COLO 205 colon = test system: COLO 205 colon
DU-145 prostate = test system: DU-145 prostate
EKVX NSCLC = test system: EKVX NSCLC
HCC-2998 colon = test system: HCC-2998 colon
HCT-116 colon = test system: HCT-116 colon
HCT-15 colon = test system: HCT-15 colon
HL-60(TB) leukemia = test system: HL-60(TB) leukemia
HOP-62 NSCLC = test system: HOP-62 NSCLC
HOP-92 NSCLC = test system: HOP-92 NSCLC
HS 578T breast = test system: HS 578T breast
HT29 colon = test system: HT29 colon
IGROV1 ovarian = test system: IGROV1 ovarian
K-562 leukemia = test system: K-562 leukemia
KM12 colon = test system: KM12 colon
LOX IMVI melanoma = test system: LOX IMVI melanoma
M14 melanoma = test system: M14 melanoma
MALME-3M melanoma = test system: MALME-3M melanoma
MCF7 breast = test system: MCF7 breast
MDA-MB-231 breast = test system: MDA-MB-231 breast
MDA-MB-435 = test system: MDA-MB-435
MOLT-4 leukemia = test system: MOLT-4 leukemia
NCI-H226 lung = test system: NCI-H226 lung
NCI-H23 lung = test system: NCI-H23 lung
NCI-H460 lung = test system: NCI-H460 lung
NCI-H522 lung = test system: NCI-H522 lung
NCI/ADR-RES ovarian = test system: NCI/ADR-RES ovarian
OVCAR-3 ovarian = test system: OVCAR-3 ovarian
OVCAR-4 ovarian = test system: OVCAR-4 ovarian
OVCAR-5 ovarian = test system: OVCAR-5 ovarian
OVCAR-8 ovarian = test system: OVCAR-8 ovarian
PC-3 prostate = test system: PC-3 prostate
RPMI-8226 leukemia = test system: RPMI-8226 leukemia
RXF 393 renal = test system: RXF 393 renal
SF-268 CNS = test system: SF-268 CNS
SF-295 CNS = test system: SF-295 CNS
SF-539 CNS = test system: SF-539 CNS
SK-MEL-2 melanoma = test system: SK-MEL-2 melanoma
SK-MEL-28 melanoma = test system: SK-MEL-28 melanoma
SK-MEL-5 melanoma = test system: SK-MEL-5 melanoma
SK-OV-3 ovarian = test system: SK-OV-3 ovarian
SN12C renal = test system: SN12C renal
SNB-19 CNS = test system: SNB-19 CNS
SNB-75 CNS = test system: SNB-75 CNS
SR leukemia = test system: SR leukemia
SW-620 colon = test system: SW-620 colon
T-47D breast = test system: T-47D breast
TK-10 renal = test system: TK-10 renal
U251 CNS = test system: U251 CNS
UACC-257 melanoma = test system: UACC-257 melanoma
UACC-62 melanoma = test system: UACC-62 melanoma
UO-31 renal = test system: UO-31 renal

C=C1C(=O)O[C@H]2[C@H]1CC/C(Cn1cc(CNCCc3c[nH]c4ccc(Cl)cc34)nn1)=C\CC[C@@]1(C)O[C@@H]21
GI50 (786-0 renal): 2.89 µM | TGI (786-0 renal): 10.2 µM | GI50 (A498 renal): 12.8 µM | TGI (A498 renal): 34.5 µM | GI50 (A549 NSCLC): 34.9 µM | TGI (A549 NSCLC): > 100 µM | GI50 (ACHN renal): 10.2 µM | TGI (ACHN renal): 22.2 µM | GI50 (BT-549 breast): 3.88 µM | TGI (BT-549 breast): 17 µM | GI50 (CAKI-1 renal): 15.2 µM | TGI (CAKI-1 renal): 28.7 µM | GI50 (CCRF-CEM leukemia): 1.72 µM | TGI (CCRF-CEM leukemia): 5.08 µM | GI50 (COLO 205 colon): 1.96 µM | TGI (COLO 205 colon): 3.75 µM | GI50 (DU-145 prostate): 5.95 µM | TGI (DU-145 prostate): 18.5 µM | GI50 (EKVX NSCLC): 15.5 µM | TGI (EKVX NSCLC): 37.4 µM | GI50 (HCC-2998 colon): 20.3 µM | TGI (HCC-2998 colon): 44.6 µM | GI50 (HCT-116 colon): 3.31 µM | TGI (HCT-116 colon): 10 µM | GI50 (HCT-15 colon): 13.4 µM | TGI (HCT-15 colon): 29.9 µM | GI50 (HL-60(TB) leukemia): 1.12 µM | TGI (HL-60(TB) leukemia): 3.46 µM | GI50 (HOP-62 NSCLC): 67.5 µM | TGI (HOP-62 NSCLC): > 100 µM | GI50 (HOP-92 NSCLC): 1.34 µM | TGI (HOP-92 NSCLC): 3.05 µM | GI50 (HS 578T breast): 11.1 µM | TGI (HS 578T breast): 53.1 µM | GI50 (HT29 colon): 3.32 µM | TGI (HT29 colon): 11.2 µM | GI50 (IGROV1 ovarian): 2.44 µM | TGI (IGROV1 ovarian): 9.59 µM | GI50 (K-562 leukemia): 2.91 µM | TGI (K-562 leukemia): 25.2 µM | GI50 (KM12 colon): 17.1 µM | TGI (KM12 colon): 44.1 µM | GI50 (LOX IMVI melanoma): 3.56 µM | TGI (LOX IMVI melanoma): 16 µM | GI50 (M14 melanoma): 13.7 µM | TGI (M14 melanoma): 31.2 µM | GI50 (MALME-3M melanoma): 2.4 µM | TGI (MALME-3M melanoma): 6.61 µM | GI50 (MCF7 breast): 2.59 µM | TGI (MCF7 breast): 11.5 µM | GI50 (MDA-MB-231 breast): 4.04 µM | TGI (MDA-MB-231 breast): 16.2 µM | GI50 (MDA-MB-435): 6.09 µM | TGI (MDA-MB-435): 21 µM | GI50 (MOLT-4 leukemia): 2.54 µM | TGI (MOLT-4 leukemia): 6.56 µM | GI50 (NCI-H226 lung): 31.3 µM | TGI (NCI-H226 lung): > 100 µM | GI50 (NCI-H23 lung): 17 µM | TGI (NCI-H23 lung): 45.5 µM | GI50 (NCI-H460 lung): 49.1 µM | TGI (NCI-H460 lung): > 100 µM | GI50 (NCI-H522 lung): 1.58 µM | TGI (NCI-H522 lung): 3.12 µM | GI50 (NCI/ADR-RES ovarian): > 100 µM | TGI (NCI/ADR-RES ovarian): > 100 µM | GI50 (OVCAR-3 ovarian): 2.44 µM | TGI (OVCAR-3 ovarian): 6.5 µM | GI50 (OVCAR-4 ovarian): 5.23 µM | TGI (OVCAR-4 ovarian): 19.7 µM | GI50 (OVCAR-5 ovarian): 11.5 µM | TGI (OVCAR-5 ovarian): 26.7 µM | GI50 (OVCAR-8 ovarian): 11.8 µM | TGI (OVCAR-8 ovarian): 29.1 µM | GI50 (PC-3 prostate): 8.96 µM | TGI (PC-3 prostate): 27 µM | GI50 (RPMI-8226 leukemia): 2.36 µM | TGI (RPMI-8226 leukemia): 5.55 µM | GI50 (RXF 393 renal): 2.66 µM | TGI (RXF 393 renal): 9.69 µM | GI50 (SF-268 CNS): 12.5 µM | TGI (SF-268 CNS): 33.6 µM | GI50 (SF-295 CNS): 30.9 µM | TGI (SF-295 CNS): > 100 µM | GI50 (SF-539 CNS): 4.23 µM | TGI (SF-539 CNS): 14.6 µM | GI50 (SK-MEL-2 melanoma): 10.3 µM | TGI (SK-MEL-2 melanoma): 26.1 µM | GI50 (SK-MEL-28 melanoma): 10.7 µM | TGI (SK-MEL-28 melanoma): 25.2 µM | GI50 (SK-MEL-5 melanoma): 17 µM | TGI (SK-MEL-5 melanoma): 34.9 µM | GI50 (SK-OV-3 ovarian): 35 µM | TGI (SK-OV-3 ovarian): > 100 µM | GI50 (SN12C renal): 2.54 µM | TGI (SN12C renal): 8.24 µM | GI50 (SNB-19 CNS): 8.69 µM | TGI (SNB-19 CNS): 32.4 µM | GI50 (SNB-75 CNS): 4.88 µM | TGI (SNB-75 CNS): 17.9 µM | GI50 (SR leukemia): 3.01 µM | TGI (SR leukemia): 9.66 µM | GI50 (SW-620 colon): 1.82 µM | TGI (SW-620 colon): 3.88 µM | GI50 (T-47D breast): 3.24 µM | TGI (T-47D breast): 13.8 µM | GI50 (TK-10 renal): 2.29 µM | TGI (TK-10 renal): 7 µM | GI50 (U251 CNS): 7.59 µM | TGI (U251 CNS): 20.9 µM | GI50 (UACC-257 melanoma): 10.7 µM | TGI (UACC-257 melanoma): 27 µM | GI50 (UACC-62 melanoma): 4.65 µM | TGI (UACC-62 melanoma): 16.9 µM | GI50 (UO-31 renal): 6.23 µM | TGI (UO-31 renal): 19.4 µM
